Values after ≈ are worked out from the molar mass of the structure shown. Active and inactive are the calls of the source. The calls are words filed in the database; no cut-off is given here.
Each compound was assayed on Klebsiella pneumoniae (assay: Antibacterial activity against gram-negative Klebsiella pneumoniae D 11750/08 after 24 to 48 hrs by microdilution broth method). Details: not given.
Assay type: functional, organism-based

Structure (SMILES) | Activity
O=C(N/N=C/c1ccc(O)cc1)c1ccc(C(F)(F)F)cc1 | inactive
O=C(N/N=C/c1cccc(Cl)c1)c1ccc(C(F)(F)F)cc1 | inactive

These compounds were tested on Escherichia coli (assay: Antibacterial activity against gram-negative Escherichia coli CCM 4517 after 24 hrs by microdilution broth method). Details: CCM 4517, 24 h.
Assay type: functional

Structure (SMILES) | MIC [µM]
O=C(N/N=C/c1ccc(O)cc1)c1ccc(C(F)(F)F)cc1 | > 250

These compounds were tested on Enterococcus faecalis (assay: Antibacterial activity against gram-positive Enterococcus faecalis J 14365/08 after 48 hrs by microdilution broth method). Details: J 14365/08, 48 h.
Assay type: functional

Structure (SMILES) | MIC [µM]
O=C(N/N=C/c1ccc(O)cc1)c1ccc(C(F)(F)F)cc1 | > 250

Each compound was assayed on Mycobacterium avium (assay: Antimycobacterial activity against Mycobacterium avium 330/88 after 14 days by micromethod). Details: 330/88, 336 h.
Assay type: functional

Structure (SMILES) | MIC [µM]
O=C(N/N=C/c1ccc(O)cc1)c1ccc(C(F)(F)F)cc1 | 250 (≈ 77.1 µg/mL)
O=C(N/N=C/c1cccc(Cl)c1)c1ccc(C(F)(F)F)cc1 | > 125

These compounds were tested on Candida tropicalis (assay: Antifungal activity against Candida tropicalis 156 after 24 hrs by microdilution broth method). Details: Candida tropicalis, 156, 24 h.
Assay type: functional

Structure (SMILES) | MIC [µM]
O=C(N/N=C/c1ccc(O)cc1)c1ccc(C(F)(F)F)cc1 | > 125

What follows are compounds tested on Staphylococcus aureus (assay: Antibacterial activity against gram-positive methicillin-resistant Staphylococcus aureus H 5996/08 after 48 hrs by microdilution broth method). Details: H 5996/08, 48 h.
Assay type: functional

Structure (SMILES) | MIC [µM]
O=C(N/N=C/c1ccc(O)cc1)c1ccc(C(F)(F)F)cc1 | 250 (≈ 77.1 µg/mL)

What follows are compounds tested on Aspergillus fumigatus (assay: Antifungal activity against Aspergillus fumigatus 231 after 24 to 48 hrs by microdilution broth method). Details: not given.
Assay type: functional, organism-based

Structure (SMILES) | Activity
O=C(N/N=C/c1ccc(O)cc1)c1ccc(C(F)(F)F)cc1 | inactive
O=C(N/N=C/c1cccc(Cl)c1)c1ccc(C(F)(F)F)cc1 | inactive

These compounds were tested on Candida tropicalis (assay: Antifungal activity against Candida tropicalis 156 after 48 hrs by microdilution broth method). Details: Candida tropicalis, 156, 48 h.
Assay type: functional

Structure (SMILES) | MIC [µM]
O=C(N/N=C/c1ccc(O)cc1)c1ccc(C(F)(F)F)cc1 | > 125

The compounds below were run on Escherichia coli (assay: Antibacterial activity against gram-negative Escherichia coli CCM 4517 after 48 hrs by microdilution broth method). Details: CCM 4517, 48 h.
Assay type: functional

Structure (SMILES) | MIC [µM]
O=C(N/N=C/c1ccc(O)cc1)c1ccc(C(F)(F)F)cc1 | > 250

These compounds were tested on Staphylococcus epidermidis (assay: Antibacterial activity against gram-positive Staphylococcus epidermidis H 6966/08 after 24 hrs by microdilution broth method). Details: H 6966/08, 24 h.
Assay type: functional

Structure (SMILES) | MIC [µM]
O=C(N/N=C/c1ccc(O)cc1)c1ccc(C(F)(F)F)cc1 | 125 (≈ 38.5 µg/mL)

Each compound was assayed on Candida albicans (assay: Antifungal activity against Candida albicans ATCC 44859 after 24 to 48 hrs by microdilution broth method). Details: not given.
Assay type: functional, organism-based

Structure (SMILES) | Activity
O=C(N/N=C/c1ccc(O)cc1)c1ccc(C(F)(F)F)cc1 | inactive
O=C(N/N=C/c1cccc(Cl)c1)c1ccc(C(F)(F)F)cc1 | inactive

These compounds were tested on Nakaseomyces glabratus (assay: Antifungal activity against Candida glabrata 20/I after 48 hrs by microdilution broth method). Details: not given.
Assay type: functional

Structure (SMILES) | MIC [µM]
O=C(N/N=C/c1ccc(O)cc1)c1ccc(C(F)(F)F)cc1 | > 125

What follows are compounds tested on Lichtheimia corymbifera (assay: Antifungal activity against Absidia corymbifera 272 after 24 to 48 hrs by microdilution broth method). Details: not given.
Assay type: functional, organism-based

Structure (SMILES) | Activity
O=C(N/N=C/c1ccc(O)cc1)c1ccc(C(F)(F)F)cc1 | inactive
O=C(N/N=C/c1cccc(Cl)c1)c1ccc(C(F)(F)F)cc1 | inactive

These compounds were tested on Mycobacterium kansasii (assay: Antimycobacterial activity against Mycobacterium kansasii 6509/80 after 21 days by micromethod). Details: 6509/80, 504 h.
Assay type: functional

Structure (SMILES) | MIC [µM]
O=C(N/N=C/c1ccc(O)cc1)c1ccc(C(F)(F)F)cc1 | 125 (≈ 38.5 µg/mL)
O=C(N/N=C/c1cccc(Cl)c1)c1ccc(C(F)(F)F)cc1 | > 125

The compounds below were run on Pichia kudriavzevii (assay: Antifungal activity against Candida krusei E28 after 24 hrs by microdilution broth method). Details: E28, 24 h.
Assay type: functional

Structure (SMILES) | MIC [µM]
O=C(N/N=C/c1ccc(O)cc1)c1ccc(C(F)(F)F)cc1 | > 125

Each compound was assayed on Mycobacterium kansasii (assay: Antimycobacterial activity against Mycobacterium kansasii 6509/80 after 7 days by micromethod). Details: 6509/80, 168 h.
Assay type: functional

Structure (SMILES) | MIC [µM]
O=C(N/N=C/c1ccc(O)cc1)c1ccc(C(F)(F)F)cc1 | 62.5 (≈ 19.3 µg/mL)
O=C(N/N=C/c1cccc(Cl)c1)c1ccc(C(F)(F)F)cc1 | 125 (≈ 40.8 µg/mL)

These compounds were tested on Pseudomonas aeruginosa (assay: Antibacterial activity against gram-negative Pseudomonas aeruginosa CCM 1961 after 48 hrs by microdilution broth method). Details: not given.
Assay type: functional, organism-based

Structure (SMILES) | Activity
O=C(N/N=C/c1ccc(O)cc1)c1ccc(C(F)(F)F)cc1 | inactive
O=C(N/N=C/c1cccc(Cl)c1)c1ccc(C(F)(F)F)cc1 | inactive

The compounds below were run on Mycobacterium kansasii (assay: Antimycobacterial activity against Mycobacterium kansasii 6509/96 after 21 days by micromethod). Details: 6509/96, 504 h.
Assay type: functional

Structure (SMILES) | MIC [µM]
O=C(N/N=C/c1ccc(O)cc1)c1ccc(C(F)(F)F)cc1 | 500 (≈ 154 µg/mL)
O=C(N/N=C/c1cccc(Cl)c1)c1ccc(C(F)(F)F)cc1 | > 125

The compounds below were run on Nakaseomyces glabratus (assay: Antifungal activity against Candida glabrata 20/I after 24 hrs by microdilution broth method). Details: not given.
Assay type: functional

Structure (SMILES) | MIC [µM]
O=C(N/N=C/c1ccc(O)cc1)c1ccc(C(F)(F)F)cc1 | > 125

What follows are compounds tested on Mycobacterium tuberculosis (assay: Antimycobacterial activity against Mycobacterium tuberculosis H37Rv 331/88 after 14 days by micromethod). Details: H37Rv 331/88, 336 h.
Assay type: functional

Structure (SMILES) | MIC [µM]
O=C(N/N=C/c1ccc(O)cc1)c1ccc(C(F)(F)F)cc1 | 125 (≈ 38.5 µg/mL)
O=C(N/N=C/c1cccc(Cl)c1)c1ccc(C(F)(F)F)cc1 | > 125

Each compound was assayed on Mycobacterium kansasii (assay: Antimycobacterial activity against Mycobacterium kansasii 6509/96 after 14 days by micromethod). Details: 6509/96, 336 h.
Assay type: functional

Structure (SMILES) | MIC [µM]
O=C(N/N=C/c1ccc(O)cc1)c1ccc(C(F)(F)F)cc1 | 500 (≈ 154 µg/mL)
O=C(N/N=C/c1cccc(Cl)c1)c1ccc(C(F)(F)F)cc1 | > 125

These compounds were tested on Pichia kudriavzevii (assay: Antifungal activity against Candida krusei E28 after 48 hrs by microdilution broth method). Details: E28, 48 h.
Assay type: functional

Structure (SMILES) | MIC [µM]
O=C(N/N=C/c1ccc(O)cc1)c1ccc(C(F)(F)F)cc1 | > 125

These compounds were tested on Staphylococcus aureus (assay: Antibacterial activity against gram-positive Staphylococcus aureus CCM 4516/08 after 24 hrs by microdilution broth method). Details: CCM 4516/08, 24 h.
Assay type: functional

Structure (SMILES) | MIC [µM]
O=C(N/N=C/c1ccc(O)cc1)c1ccc(C(F)(F)F)cc1 | 250 (≈ 77.1 µg/mL)

The compounds below were run on Mycobacterium kansasii (assay: Antimycobacterial activity against Mycobacterium kansasii 6509/80 after 14 days by micromethod). Details: 6509/80, 336 h.
Assay type: functional

Structure (SMILES) | MIC [µM]
O=C(N/N=C/c1ccc(O)cc1)c1ccc(C(F)(F)F)cc1 | 125 (≈ 38.5 µg/mL)
O=C(N/N=C/c1cccc(Cl)c1)c1ccc(C(F)(F)F)cc1 | > 125

Each compound was assayed on Trichophyton mentagrophytes (assay: Antifungal activity against Trichophyton mentagrophytes 445 after 120 hrs by microdilution broth method). Details: Trichophyton mentagrophytes, 445, 120 h.
Assay type: functional

Structure (SMILES) | MIC [µM]
O=C(N/N=C/c1ccc(O)cc1)c1ccc(C(F)(F)F)cc1 | > 125

What follows are compounds tested on Mycobacterium avium (assay: Antimycobacterial activity against Mycobacterium avium 330/88 after 21 days by micromethod). Details: 330/88, 504 h.
Assay type: functional

Structure (SMILES) | MIC [µM]
O=C(N/N=C/c1ccc(O)cc1)c1ccc(C(F)(F)F)cc1 | 500 (≈ 154 µg/mL)
O=C(N/N=C/c1cccc(Cl)c1)c1ccc(C(F)(F)F)cc1 | > 125

What follows are compounds tested on Trichophyton mentagrophytes (assay: Antifungal activity against Trichophyton mentagrophytes 445 after 72 hrs by microdilution broth method). Details: Trichophyton mentagrophytes, 445, 72 h.
Assay type: functional

Structure (SMILES) | MIC [µM]
O=C(N/N=C/c1ccc(O)cc1)c1ccc(C(F)(F)F)cc1 | > 125

What follows are compounds tested on Staphylococcus aureus (assay: Antibacterial activity against gram-positive methicillin-resistant Staphylococcus aureus H 5996/08 after 24 hrs by microdilution broth method). Details: H 5996/08, 24 h.
Assay type: functional

Structure (SMILES) | MIC [µM]
O=C(N/N=C/c1ccc(O)cc1)c1ccc(C(F)(F)F)cc1 | 250 (≈ 77.1 µg/mL)

The compounds below were run on Staphylococcus epidermidis (assay: Antibacterial activity against gram-positive Staphylococcus epidermidis H 6966/08 after 48 hrs by microdilution broth method). Details: H 6966/08, 48 h.
Assay type: functional

Structure (SMILES) | MIC [µM]
O=C(N/N=C/c1ccc(O)cc1)c1ccc(C(F)(F)F)cc1 | 125 (≈ 38.5 µg/mL)

These compounds were tested on Enterococcus faecalis (assay: Antibacterial activity against gram-positive Enterococcus faecalis J 14365/08 after 24 hrs by microdilution broth method). Details: J 14365/08, 24 h.
Assay type: functional

Structure (SMILES) | MIC [µM]
O=C(N/N=C/c1ccc(O)cc1)c1ccc(C(F)(F)F)cc1 | > 250

The compounds below were run on Klebsiella pneumoniae (assay: Antibacterial activity against extended spectrum beta-lactamase-positive Klebsiella pneumoniae J 14368/08 after 24 to 48 hrs by microdilution broth method). Details: not given.
Assay type: functional, organism-based

Structure (SMILES) | Activity
O=C(N/N=C/c1ccc(O)cc1)c1ccc(C(F)(F)F)cc1 | inactive
O=C(N/N=C/c1cccc(Cl)c1)c1ccc(C(F)(F)F)cc1 | inactive

What follows are compounds tested on Staphylococcus aureus (assay: Antibacterial activity against gram-positive Staphylococcus aureus CCM 4516/08 after 48 hrs by microdilution broth method). Details: CCM 4516/08, 48 h.
Assay type: functional

Structure (SMILES) | MIC [µM]
O=C(N/N=C/c1ccc(O)cc1)c1ccc(C(F)(F)F)cc1 | 250 (≈ 77.1 µg/mL)

Each compound was assayed on Trichosporon asahii (assay: Antifungal activity against Trichosporon asahii 1188 after 24 to 48 hrs by microdilution broth method). Details: not given.
Assay type: functional, organism-based

Structure (SMILES) | Activity
O=C(N/N=C/c1ccc(O)cc1)c1ccc(C(F)(F)F)cc1 | inactive
O=C(N/N=C/c1cccc(Cl)c1)c1ccc(C(F)(F)F)cc1 | inactive

Each compound was assayed on Mycobacterium tuberculosis (assay: Antimycobacterial activity against Mycobacterium tuberculosis H37Rv 331/88 after 21 days by micromethod). Details: H37Rv 331/88, 504 h.
Assay type: functional

Structure (SMILES) | MIC [µM]
O=C(N/N=C/c1ccc(O)cc1)c1ccc(C(F)(F)F)cc1 | 125 (≈ 38.5 µg/mL)
O=C(N/N=C/c1cccc(Cl)c1)c1ccc(C(F)(F)F)cc1 | > 125

Each compound was assayed on Mycobacterium kansasii (assay: Antimycobacterial activity against Mycobacterium kansasii 6509/96 after 7 days by micromethod). Details: 6509/96, 168 h.
Assay type: functional

Structure (SMILES) | MIC [µM]
O=C(N/N=C/c1ccc(O)cc1)c1ccc(C(F)(F)F)cc1 | 250 (≈ 77.1 µg/mL)
O=C(N/N=C/c1cccc(Cl)c1)c1ccc(C(F)(F)F)cc1 | > 125
